The record followed here is a melting point compilation (Tetko et al.; mined from patent text by program, amines drawn as free bases though some values may be those of a salt).

Broadly, the melting point is the temperature of the solid-liquid transition.

The molecule `CCOC(=O)c1ccc(NCc2ccc(Cl)s2)cc1` showed a melting point of 108 to 109 °C.
`CN1CCN(c2cccc3c2ccn3S(=O)(=O)c2ccc(F)cc2)CC1` registered a melting point of 151 to 152 °C.
With `Cc1ccc(NC(=O)c2c(C)cccc2NC(=O)OC(C)(C)C)cc1` the figure was 250 °C; with `CC(C)(C)OC(=O)C1CCN(Sc2ccncc2)CC1`, 71 to 72 °C.
To `CCOC(=O)C1CCCC1NC(=O)C=C(C)OC` (stereo unspecified) belongs 74 °C.
With `CC(=O)Nc1cccc(-c2nc(=O)c3ccccc3s2)c1` the figure was 241 to 242 °C; with `O=C(NNS(=O)(=O)c1c(Cl)cccc1Cl)c1ccc2oc3ccccc3c2c1`, 202 to 203 °C; with `O=C(O)COc1cc(F)ccc1C(=O)NCc1nc2cc(C(F)(F)F)ccc2s1`, 206 to 208 °C.
With `CS(=O)(=O)N1C[C@H](S)C[C@H]1COc1ccccc1`, the melting point fell in the range of 78 to 79 °C.
With `Cc1noc(NS(=O)(=O)c2ccsc2C(=O)Nc2ccccc2)c1C` the figure was 176 °C; with `O=c1cc(CCO)c2cc(F)ccc2n1Cc1cc(Br)c(Br)c(Br)c1`, 135 to 140 °C.
With `CC1N=C(c2ccccc2Cl)c2cc([N+](=O)[O-])ccc2NC1=S` (single isomer, unassigned; (+)), the melting point is 258 to 260 °C.
In turn, `CN(C)c1ccc(Nc2ncc(C(=O)O)c(=O)[nH]2)cc1` returned a melting point of 261 to 263 °C.
To `COC(=O)c1ccc2c(c1)C(c1ccccn1)=CC(C)(C)O2` belongs 94 to 95 °C; to `COC(=O)C(Sc1ccc(Cl)cc1)c1ccc(I)cc1` (stereo unspecified), 44 to 46 °C; to `CCCCCCOc1ccccc1C(=NCCC(C)(C)C)NC#N`, 89 to 90 °C.
To `C=CCc1cc2c(cc1O)C(C)(C)C(O)O2` (stereo unspecified) belongs 66 to 67 °C.
With `CNc1nn(-c2ccccc2)cc1C=O` the figure was 83 to 84 °C; with `NC(CCCCNC(=O)OCc1ccccc1)C(=O)N(Cc1ccccc1)Cc1ccccc1` (stereo unspecified), 135 to 136 °C; with `Cc1ccc(C2CC(C(F)(F)F)=NN2c2ccc(S(N)(=O)=O)cc2)cc1` (stereo unspecified), 140 to 143 °C.
In turn, `O=C1NC(=O)c2c1c(-c1cc([N+](=O)[O-])ccc1O)cc1[nH]c3ccc(O)cc3c21` returned a melting point above 330 °C.
With `O=C1Cc2cc3ccccc3nc2N1` the figure was 261 °C; with `COC(=O)c1cccc2nc(SCCCCCC(=O)Nc3c(SC)cc(C)nc3SC)oc12`, 141 to 142 °C; with `O=C1CCCC(=O)N1C(Sc1nnn[nH]1)c1ccccc1` (stereo unspecified), 84 to 85 °C.
The molecule `CCC(C)N(C)C(=O)c1cc2ccccc2c(-c2cccs2)n1` (stereo unspecified) returned a melting point of 146 °C.
To `Cn1c(=O)cc(-c2cccc(Cl)c2)c2cc(C(C)(c3ccc(Cl)cc3)n3ccnc3)ccc21` (stereo unspecified) belongs 120 °C.
With `CC(=O)NC[C@H]1CN(c2ccc(C(=O)c3cnc4ccc(F)cn34)cc2)C(=O)O1` the figure was 224 to 226 °C; with `CCC#CC(C)(C)NC(=O)C(Br)CC` (stereo unspecified), 53 to 55 °C.
To `OCc1nccc(N2CCOCC2)c1Cl` belongs 80 to 82 °C; to `FC(F)c1nc2ccccc2n1-c1nc(NCc2ccccn2)nc(N2CCOCC2)n1`, 192 to 193 °C; to `COC(=O)c1sc(C)c(O)c1O`, 116 to 117 °C.
With `CCNC(=N)NC(=O)Cc1cccc(OC)c1`, the melting point was 108 to 110 °C.
With `CCOC(=O)C1CCc2cc(C(=O)c3ccccc3)c(O)cc21` (stereo unspecified) the figure was 83 to 84 °C; with `Cc1ccc2nc(-c3ccc4oc(=O)n(C)c4c3)c(C)n2c1`, 247 to 249 °C; with `OC[C@@H]1O[C@H](n2c(NC3CC3)nc3c(Br)c(Cl)c(Cl)cc32)[C@@H](O)[C@H]1O`, 205 to 208 °C.
To `CCCCCCCCCCCCCCCc1[nH]c2ccc(C(=S)OCC)cc2c1C` belongs 55 to 60 °C.
